Laboratory results taken from US7387999B2, “Simmondsin for use as angiogenesis inhibitor” (priority 2002, dated 2008).
Where two headings read alike, the source gives them in different places.

Legend:
human oestrogen receptor = biological target: T1, human oestrogen receptor (Homo sapiens, UniProt P03372); test: oestrogenic bioassay; format: cell-based; conditions: yeast with human oestrogen receptor; 1, 10, 100, 1000 μM; 3 days; compared to 17 beta-oestradiol standards, FIG. 11
T1 construct: expressed in transfected cells; host or cells: Saccharomyces cerevisiae (recombinant yeast)
T1 sequence (P03372 1-595): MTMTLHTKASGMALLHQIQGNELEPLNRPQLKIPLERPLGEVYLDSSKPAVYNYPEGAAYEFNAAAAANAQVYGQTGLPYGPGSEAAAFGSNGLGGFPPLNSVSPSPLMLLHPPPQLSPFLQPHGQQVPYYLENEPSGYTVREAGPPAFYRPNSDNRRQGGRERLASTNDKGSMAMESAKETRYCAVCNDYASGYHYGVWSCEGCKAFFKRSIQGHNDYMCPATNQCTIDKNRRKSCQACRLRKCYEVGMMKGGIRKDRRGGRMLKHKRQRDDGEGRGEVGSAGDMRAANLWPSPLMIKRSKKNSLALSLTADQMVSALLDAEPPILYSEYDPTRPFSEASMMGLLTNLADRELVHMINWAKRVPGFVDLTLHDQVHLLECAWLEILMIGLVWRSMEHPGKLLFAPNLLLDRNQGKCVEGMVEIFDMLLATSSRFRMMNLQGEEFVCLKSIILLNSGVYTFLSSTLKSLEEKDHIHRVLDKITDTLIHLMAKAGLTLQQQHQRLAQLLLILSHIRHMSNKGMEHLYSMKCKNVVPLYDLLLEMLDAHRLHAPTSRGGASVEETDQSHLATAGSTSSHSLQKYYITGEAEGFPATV
Description: In an experiment, yeast cells (Saccharomyces cerevisiae) containing a human oestrogen receptor (100 μl) was added to 25 ml growth medium. The growth medium comprised • D-glucose (2.5 ml from 20 g D-glucose in 80 ml water); • L-aspartic acid (0.625 ml from 400 mg in 100 ml water); • vitamin solution (0.250 ml from 8 mg thiamine, 8 mg pyridoxine, 8 mg panthotenic acid, 40 mg inositol and 20 ml biotin solution (2 mg in 100 ml water) in 180 ml water); • L-threonine (0.2 ml from 2.4 g in 100 ml water), copper(II)sulphate (0.0625 ml from 160 mg in 50 ml water); • minimal medium (22.5 ml from 1 l water composed of 13.61 g potassium dihydrogenphosphate, 1.98 g ammonium sulphate, 4.2 g potassium hydroxide, 1 ml iron(III)sulphate (40 mg in 50 ml water), 50 mg L-leucine, 50 mg L-histidine, 50 mg adenine, 20 mg L-arginine hydrochloride, 20 mg L-methionine, 30 mg L-tyrosine, 30 mg L-isoleucine, 30 mg L-lysine hydrochloride, 25 mg L-phenylalanine, 100 mg L-glutamic acid, 150 mg L-valine, 375 mg L-serine); and chlorophenol red beta-D-galactopyranoside (0.250 ml).
17 beta-oestradiol (20 μl aliquots from 0.008 nM to 100 nM, prepared from 10 mg in 10 ml ethanol) and test compounds, in concentrations of 1, 10, 100, 1000 μM, were pipetted into 96-well plates in a sterile flow hood. The solvent was left to evaporate for about 40 min.
The growth medium containing yeast was dispensed to all wells, except blank wells, in aliquots of 100 μl. The plates were incubated at 32° C. in a humidified atmosphere for 3 days, and then read at 540/360 nm by a microtiter plate reader (labsystems Muliskan Ascent Reader, Thermo labsystems, Vantaa, Finland).

[1] = tested on: chorion allantois membrane (CAM); test: chorion allantois membrane (CAM) assay; format: in vivo, chicken; conditions: for effect on blood vessel growth in the CAM (in words): Experiment 1
Description: Fertilized chicken eggs are incubated during 4 days at 37° C. Subsequently, the egg shell is opened to disclose the CAM. In order to reduce the pressure on the CAM for improving its manipulating properties, 2 to 3 ml albumen is removed. The opening is closed using cellophane tape and the eggs are further incubated until day 9 for application of the liquid test compounds using different concentrations. Dulbecco's modified Eagle medium (DMEM) was used as a negative control, whereas Vascular Endothelial Growth factor (VEGF) was used as a positive control (stimulator of angiogenesis). A total polar extract from refined, de-oiled jojoba flour, dimethylsimmondsin purified from this extract and a commercially known angiogenesis inhibitor (Tangeritin) were compared in their angiogenesis-inhibiting activity towards VEGF stimulated angiogenesis in the CAM's. Each of these solubilized test compositions was pipetted on a sterile plastic disc (10 mm diameter) and dried under sterile conditions.
Each disc was treated with cortisone acetate (100 μg/50 μl) in order to avoid inflammatory reactions. After drying, the discs were placed on the CAM with the charged side facing the CAM. The control disc (DMEM) was placed at 1 cm of the disc containing the test component. The opening was sealed with cellophane tape and the eggs were further incubated. At day 11, the tape and discs were removed and 10% buffered formaline was sprayed over the CAM. Eggs were allowed to dry for 2 to 4 h at room T°. Then, the CAM was cut out of the egg and mounted on a glass slide. The vascular density index is measured according to Harris-Hooker et al. (1983; J. Cell. Physiol. 114:302-310); all micro vessels that cross 3 concentric circles with a diameter of 6, 8 and 10 mm were counted, as illustrated on FIG. 2.
The angiogenetic Index (AI) is expressed as {(t/c)×100}−100, whereby t=total number of crossing vessels where the disc containing the test component was located, and c=total number of crossing vessels where the control disc was located. […]

angiogenesis = conditions: in vitro and in vivo assays
[2] = tested on: human microvascular endothelial cells (hMVEC); test: in vitro angiogenesis assay: tube formation in 3-D fibrin matrices; format: cell-based; conditions: hMVEC on 3-D fibrin matrix, VEGF-A 25 ng/mL and TNFα 10 ng/mL, 7 days, FIG. 8
Description: Human fibrin matrices were prepared by the addition of 0.1 U/ml thrombin to a commercially obtained (Chromogenix AB, Mölndal, Sweden) mixture of 2 mg/ml fibrinogen (final concentrations), 2 mg/ml Na-citrate, 0.8 mg/ml NaCl, 3 μg/ml plasminogen in M199 medium and 2.5 U/ml factor XIII. 100 μl aliquots of this mixture were added to the wells of 96-well plates. After clotting at room temperature, the fibrin matrices were soaked with M199 supplemented with 10% HS and 10% NBCS for 2 h at 37° C. to inactivate the thrombin. […] Invading cells and the formation of tubular structures of hMVEC in the three-dimensional fibrin matrix were analysed by phase contrast microscopy. The total length of tube-like structures of four microscopic fields (7.3 mm^2/field) were (clockwise) measured using an Olympus CK2 microscope equipped with a monochrome CCD camera (MX5) connected to a computer with Optimas image analysis software, and expressed as mm/cm^2 (Koolwijk et al. J. Cell Biol. 1996, 132:1177-188).
HMVEC were cultured on top of a 3-D fibrin matrix in M199, 10% human serum, 10% NBCS supplemented with VEGF-A (25 ng/mL) and TNFα (10 ng/mL) in the presence or absence of the indicated concentrations (w/v) of the compositions A1, A2, A3, A4, A5, B4, B5 and B6. […] The data are expressed as the mean of two wells indicated by the error bars (FIG. 8 B).

## 4,5-dimethylsimmondsin [A4]
Human oestrogen receptor
  oestrogen-like activity: no significant oestrogen-like activity
[1]
  effect on blood vessel growth in the CAM (in words): significant angiogenesis inhibition comparable with tangeritin
[1]; Experiments 2 and 3, A4 in the same concentration as the total polar extract
  angiogenesis-inhibiting activity in the CAM (in words): lower than the total polar extract but nevertheless still significant

## 4,5-dimethylsimmondsin ferulate (cis/trans) [A5]
angiogenesis
  angiogenesis-inhibiting activity (overall conclusion): higher angiogenesis-inhibiting activity than the unsubstituted dimethylsimmondsin
angiogenesis; listed as dimethylsimmondsin ferulates
  angiogenesis-inhibiting activity (overall conclusion): significant angiogenesis-inhibiting activity, which is higher than the activity of unsubstituted dimethylsimmondsin

## COC1CC(OC2OC(CO)C(O)C(O)C2O)C(=CC#N)C(O)C1O (stereo not shown) [4-desmethylsimmondsin]
Human oestrogen receptor
  oestrogen-like activity: no significant oestrogen-like activity

## CO[C@H]1[C@@H](O)C[C@@H](O[C@@H]2O[C@H](CO)[C@@H](O)[C@H](O)[C@H]2O)/C(=C\C#N)[C@@H]1O [5-desmethylsimmondsin]
Human oestrogen receptor
  oestrogen-like activity: no significant oestrogen-like activity

## N#CC=C1CC(O)C(O)C(O)C1O[C@@H]1O[C@H](CO)[C@@H](O)[C@H](O)[C@H]1O (stereo partly shown) [B5, 4,5-didesmethylsimmondsin]
[2]
  inhibition of VEGF-induced in vitro tube formation: highest biological activity
Human oestrogen receptor
  oestrogen-like activity: no significant oestrogen-like activity

## COc1cc(C=CC(=O)OC2C(OC3CC(OC)C(OC)C(O)C3=CC#N)OC(CO)C(O)C2O)ccc1O (stereo not shown) [E simmondsin-2′-ferulate]
Human oestrogen receptor
  oestrogen-like activity: no significant oestrogen-like activity

## COc1cc(/C=C\C(=O)O[C@@H]2[C@@H](O[C@@H]3C[C@H](OC)[C@H](OC)[C@@H](O)/C3=C/C#N)O[C@@H](CO)[C@H](O)[C@H]2O)ccc1O [Z simmondsin-2′-ferulate]
Human oestrogen receptor
  oestrogen-like activity: no significant oestrogen-like activity

## VEGF [reference compound]
[1]
  effect on blood vessel growth in the CAM (in words): significant blood vessel growth compared with the negative control group (DMEM)

## desmethylsimmondsin
[2]
  inhibition of VEGF-induced in vitro tube formation: highest biological activity
